{"source": "patent US20260335514A1", "about": "“Drug-Coated Medical Devices & Methods of Making” (Bard Peripheral Vascular, Inc., priority 2022, published 2026)", "key": {"[1]": {"tested_on": "femoral arteries of porcine model", "assay": "morphometry of stented arteries (Example 4)", "type": "in vivo", "conditions": "for amount of restenosis observed (in words): 60 and 90 days", "method": "(§1) In Example 4, formulations for stent drug coatings were prepared as subsequently described, followed by obtaining 7, 28, 60, and 90 days histological data from in vivo studies when implanted in femoral arteries of porcine model.\n(§2) Five total formulations were used: a control of PVDF only, prepared at a concentration of 5 mg/mL in a solution of 90% acetone and 10% cyclohexane; a colchicine coating, prepared in a 5:1 PVDF: colchicine ratio with 5 mg/mL provided to 90% acetone and 10% DMF; a roflumilast coating at a 5:1 PVDF:roflumilast ratio, with […] provided to a 42.5% EtOAc, 50% acetone, and 7.5% DMF solution; a tadalafil coating prepared at 3:1 PVDF:tadalafil, provided at 5 mg/mL in a solution of 30% EtOAc, 60% acetone, and 10% DMF; and a sunitinib coating provided at 3:1 PVDF:sunitinib malate, prepared at 5 mg/mL in a solution of 60% MeOAc, 30% acetone, and 10% DMF. Coatings were provided to 5×40 mm and 6×40 mm stents. Loading concentrations were assessed prior to and after ETO (ethylene oxide) sterilization and no discernable change was noted by the process.\n(§3) Histological studies were then performed at 60 and 90 days."}, "[2]": {"tested_on": "femoral arteries of porcine model", "assay": "histology of stented arteries (Example 4)", "type": "in vivo", "method": "as §1, §2, §3"}, "[3]": {"tested_on": "femoral arteries of porcine model", "assay": "in vivo pharmacokinetics of drug coated stents (Example 4)", "conditions": "7 and 28 days after implantation; preliminary; FIG. 10", "method": "as §1, §2\nFIG. 10 sets forth some preliminary pharmacokinetic data obtained from the prepared stents at 7 and 28 days after implantation within the pigs."}, "solubility in PBS": {"assay": "solubility in PBS", "type": "physicochemical", "method": "Drug coatings with crystalline forms of tyrosine kinase inhibitors were also examined. Sunitinib was again chosen as the candidate drug and crystal pamoate salts were prepared by recrystaliization in ethanol or ethanol and DMF for a hemi-pamoate."}, "[4]": {"conditions": "octanol-water; cited from earlier work"}, "[5]": {"conditions": "cited from earlier work"}}, "note": "Where “and” joins values, the source holds several entries; their conditions need not be identical. Equal entries are not always repeated. Where two headings read alike, the source gives them in different places.", "data": [{"smiles": "COc1cc2c(c(OC)c1OC)-c1ccc(OC)c(=O)cc1[C@@H](NC(C)=O)CC2", "note": "[Colchicine, colchicine]", "values": [{"measurement": "% Stenosis", "setting": "[1]; pig, in vivo", "value": "67.45% and 81.83%"}, {"measurement": "Medial Area", "setting": "[1]; pig, in vivo", "value": 1.22}, {"measurement": "percentage of stenosis (in words)", "setting": "[1]; pig, in vivo", "value": "seemingly accelerated amount of stenosis"}, {"measurement": "Inflammation Score", "setting": "[2]; pig, in vivo", "value": 3.06}, {"measurement": "Restenosis % area", "setting": "[2]; pig, in vivo", "value": "67.45% and 81.83%"}]}, {"smiles": "O=C(Nc1c(Cl)cncc1Cl)c1ccc(OC(F)F)c(OCC2CC2)c1", "note": "[Roflumilast, roflumilast]", "values": [{"measurement": "Fibrin %", "setting": "[2]; 60 days", "value": 16.65, "unit": "%"}, {"measurement": "Giant cell %", "setting": "[2]; 60 days", "value": 0.49, "unit": "%"}, {"measurement": "Inflammation Score", "setting": "[2]; 60 days", "value": 0.69}, {"measurement": "PGs/Collagen score", "setting": "[2]; 60 days", "value": 0.75}, {"measurement": "Restenosis % area", "setting": "[2]; 60 days", "value": 40.45, "unit": "%"}, {"measurement": "Fibrin %", "setting": "[2]; 90 days", "value": 1.0, "unit": "%"}, {"measurement": "Giant cell %", "setting": "[2]; 90 days", "value": 0.0, "unit": "%"}, {"measurement": "Inflammation Score", "setting": "[2]; 90 days", "value": 0.56}, {"measurement": "PGs/Collagen score", "setting": "[2]; 90 days", "value": 1.44}, {"measurement": "Restenosis % area", "setting": "[2]; 90 days", "value": 30.69, "unit": "%"}, {"measurement": "pharmacokinetic data versus target (in words)", "setting": "[3]", "value": "expected target ranges"}]}, {"smiles": "CCN(CC)CCNC(=O)c1c(C)[nH]c(/C=C2\\C(=O)Nc3ccc(F)cc32)c1C", "note": "[Sunitinib as a free base, sunitinib]", "values": [{"measurement": "solubility in PBS", "setting": "solubility in PBS", "value": 26.4, "unit": "µM"}]}, {"smiles": "CCN(CC)CCNC(=O)c1c(C)[nH]c(/C=C2\\C(=O)Nc3ccc(F)cc32)c1C", "note": "[Sunitinib, sunitinib]", "values": [{"measurement": "amount of restenosis observed (in words)", "setting": "[1]", "value": "improvements in the amount of restenosis observed"}, {"measurement": "percentage of stenosis (in words)", "setting": "[1]; 60 days", "value": "similar"}, {"measurement": "Fibrin %", "setting": "[2]; 60 days", "value": 33.17, "unit": "%"}, {"measurement": "Giant cell %", "setting": "[2]; 60 days", "value": 4.14, "unit": "%"}, {"measurement": "Inflammation Score", "setting": "[2]; 60 days", "value": 1.19}, {"measurement": "PGs/Collagen score", "setting": "[2]; 60 days", "value": 1.06}, {"measurement": "Restenosis % area", "setting": "[2]; 60 days", "value": 33.76, "unit": "%"}, {"measurement": "Fibrin %", "setting": "[2]; 90 days", "value": 1.0, "unit": "%"}, {"measurement": "Giant cell %", "setting": "[2]; 90 days", "value": 2.03, "unit": "%"}, {"measurement": "Inflammation Score", "setting": "[2]; 90 days", "value": 0.25}, {"measurement": "PGs/Collagen score", "setting": "[2]; 90 days", "value": 1.31}, {"measurement": "Restenosis % area", "setting": "[2]; 90 days", "value": 30.77, "unit": "%"}]}, {"smiles": "CN1CC(=O)N2[C@H](c3ccc4c(c3)OCO4)c3[nH]c4ccccc4c3C[C@@H]2C1=O", "note": "[Tadalafil, tadalafil]", "values": [{"measurement": "amount of restenosis observed (in words)", "setting": "[1]", "value": "improvements in the amount of restenosis observed"}, {"measurement": "percentage of stenosis (in words)", "setting": "[1]; 60 days", "value": "similar"}, {"measurement": "Fibrin %", "setting": "[2]; 60 days", "value": 26.69, "unit": "%"}, {"measurement": "Giant cell %", "setting": "[2]; 60 days", "value": 7.26, "unit": "%"}, {"measurement": "Inflammation Score", "setting": "[2]; 60 days", "value": 1.19}, {"measurement": "PGs/Collagen score", "setting": "[2]; 60 days", "value": 1.44}, {"measurement": "Restenosis % area", "setting": "[2]; 60 days", "value": 35.38, "unit": "%"}, {"measurement": "Fibrin %", "setting": "[2]; 90 days", "value": 1.31, "unit": "%"}, {"measurement": "Giant cell %", "setting": "[2]; 90 days", "value": 30.12, "unit": "%"}, {"measurement": "Inflammation Score", "setting": "[2]; 90 days", "value": 1.94}, {"measurement": "PGs/Collagen score", "setting": "[2]; 90 days", "value": 1.38}, {"measurement": "Restenosis % area", "setting": "[2]; 90 days", "value": 27.4, "unit": "%"}, {"measurement": "pharmacokinetic data versus target (in words)", "setting": "[3]", "value": "lower than expected"}]}, {"smiles": "CCN(CC)CCNC(=O)c1c(C)[nH]c(/C=C2\\C(=O)Nc3ccc(F)cc32)c1C", "note": "[hemi-pamoate]", "values": [{"measurement": "solubility in PBS", "setting": "solubility in PBS", "value": 6.02, "unit": "µM"}]}, {"smiles": "CC(=O)O[C@H]1C(=O)[C@@]2(C)[C@H]([C@H](OC(=O)c3ccccc3)[C@]3(O)C[C@H](OC(=O)[C@H](O)[C@@H](NC(=O)c4ccccc4)c4ccccc4)C(C)=C1C3(C)C)[C@]1(OC(C)=O)CO[C@@H]1C[C@@H]2O", "note": "[paclitaxel]", "values": [{"measurement": "log P", "setting": "[4]", "value": 7.4}]}, {"smiles": "CCN(CC)CCNC(=O)c1c(C)[nH]c(/C=C2\\C(=O)Nc3ccc(F)cc32)c1C", "note": "[pamoate crystal]", "values": [{"measurement": "solubility in PBS", "setting": "solubility in PBS", "value": 9.6, "unit": "µM"}]}, {"smiles": "CCN(CC)CCNC(=O)c1c(C)[nH]c(/C=C2\\C(=O)Nc3ccc(F)cc32)c1C", "note": "[sunitinib malate]", "values": [{"measurement": "water solubility", "setting": "[5]", "value": "about 25 mg/mL"}, {"measurement": "solubility in PBS", "setting": "solubility in PBS; listed as malate salt", "value": 1231, "unit": "µM"}]}]}
